Assay results reported in patent US20090179638A1, “ASSAY FOR IDENTIFYING INHIBITORS OF NEURONAL APOPTOTIC PATHWAYS” (AEGERA THERAPEUTICS INC., priority 2006, published 2009).

What was measured:
[1] = tested on: JNK; assay: Endogenous phosphorylation of GST-c-Jun in PC12rtTA cells; format: cell-based; details: for expression of the GST-c-Jun fusion construct: PC12rtTA cells
Method: FIGS. 7A, 7B and 7C are photographs of Western blots which illustrate that compound 1 analogues inhibit JNK activation and induce expression of HSP70. A: PC12^rtTA cells were transfected with RNAi directed against HSP70 or with control RNA and then 24 hours later were infected with 5 MOI of AdNRG or 50 MOI of the control virus AdLacZ. At time of infection, the cells were treated with 40 μM compound 2 or with a vehicle control, as indicated. After 30 hours, cells were lysed, normalized for protein levels, and analyzed for phosphorylated Jun, HSP70, HSP25 NRAGE and actin levels. B: PC12^rtTA cells were transfected with an expression construct driving GST-Jun. After 24 hours, cells were infected with 5 MOI of AdNRG or 50 MOI of the control virus AdLacZ or were left uninfected. After a further 24 hours, uninfected cells were left untreated or were exposed to 10 ng/ml TNF or 300 mM sorbitol for 15 minutes. Cells were then lysed, normalized for protein levels, and GST-jun was recovered by glutathione pullout and analyzed for phosphorylation using a antibody directed against c-Jun pSer63 by immunoblotting. Equivalent pullout of GST-Jun was confirmed by immunoblotting with an antibody directed against c-Jun and GST. C: PC12^rtTA cells were co-transfected with an expression construct driving GST-Jun and with RNAi directed against HSP70 or with control RNA, as indicated. After 24 hours, cells were infected with 5 MOI of AdNRG or 50 MOI of the control virus AdLacZ. At time of infection, the cells were treated with 40 μM compound 2 or with a vehicle control, as indicated. After 30 hours, cells were lysed, normalized for protein levels, and GST-jun was recovered by glutathione pullout and analyzed for phosphorylation using an antibody directed against c-Jun pSer63 by immunoblotting. Equivalent pullout of GST-Jun was confirmed by immunoblotting with an antibody directed against total Jun. Lysates levels of HSP70, HSP25, HSP40, NRAGE and actin was determined by immunoblot. […]
A causal link between HSP70 induction and JNK suppression, circumventing the problem of low-transfection efficiency of the PC12rtTA cells, was developed to assess JNK pathway activation specifically in the RNAi transfected subpopulation of PC12rtTA cells. […] We anticipated that the GST-c-Jun fusion protein would be readily recoverable from lysates and its phosphostatus would provide a sensitive read-out that reflects the level of JNK pathway activation in the subpopulation of cells which were transfected. […] GST-c-Jun was then recovered from lysates and its phosphostatus determined by immunoblotting. […] Thus, the phosphostatus of the GST-jun fusion protein provided a sensitive read-out that reflects the level of JNK pathway activation in transfected cells. […]

[2] = tested on: HSP90 protein; assay: STD 1H NMR spectroscopy binding to HSP90; details: compound to protein ratio approximately 100:1, 20 mM sodium phosphate buffer pH 6.7
Method: (§1) FIG. 9 is a STD 1H NMR Spectrum of Compound 1 and 20 with HSP90 protein. STD NMR experiments were performed at 19° C. on a Varian INNOVA 500 MHz spectrometer equipped with a triple resonance HCN cold probe. A 1D saturation transfer difference pulse sequence with internal subtraction via phase cycling was employed. Residual HDO signal was removed using a W5 WATERGATE pulse sequence, with a […] interpulse delay. On resonance irradiation of the protein was performed at −0.5 ppm, with off-resonance irradiation at 34 ppm. The irradiation power was (g/2p)B1=93 Hz applied through a train of 50 ms eburp1 pulses with a 1 ms delay between the pulses. The total presaturation time was 5.1 s. The relaxation delay was set to 0.1 s. A 30 ms spin-lock pulse with a strength of (g/2p)B1=4600 Hz was used to eliminate background protein signals. The total number of scans was between 1536, with a sweep width of 16 ppm. Spectra were multiplied by a 1 Hz exponential line-broadening function prior to Fourier transform. Compounds 1 (85 uM) and 20 (85 uM) and HSP90 protein (0.85 uM) in 20 mM sodium phosphate buffer (pH 6.7) was used. A) STD 1H NMR spectrum, B) preset reference, and C) STD reference-no saturation/difference.
as §1, with “STD” for “FIG. 9 is a STD 1H NMR Spectrum of Compound 1 and 20 with HSP90 protein. STD”, “employed (Mayer and Meyer, JACS, 2001, 123, 6108-6117).” for “employed.”, “delay (Liu et. al, J. Magn. Res., 1998, 132, 125).” for “delay.”, “1536-2048,” for “1536,”, “transform.” for “transform. Compounds 1 (85 uM) and 20 (85 uM) and HSP90 protein (0.85 uM) in 20 mM sodium phosphate buffer (pH 6.7) was used. A) STD 1H NMR spectrum, B) preset reference, and C) STD reference-no saturation/difference.”
The compound to protein ratio was fixed at approximately 100:1 in 20 mM sodium phosphate buffer (pH 6.7). Compound 20 was used as a reference compound to compare binding affinities of various compounds to HSP90 by comparing the relative intensity of NOE effects in the spectra of compounds 1 and 20 (see FIG. 9), compounds 2 and 20, compounds 5 and 20, compounds 13 and 20, and compounds 15 and 20 (near equamolar quantities of each) in the presence of HSP90 protein. Using the NOE signals for the imidazole proton, and comparing peak heights, the relative kd of the compound pairs were compared (see Meyer and Peters, T. Angew. Chem. Int. Ed. 2003, 42, 864). The kds of the compound pairs ranged from 1:1 to 8:1. These differences in binding affinities correlated to the potency of each respective compound's ability to rescue SCG neurons from NGF withdrawal as previously reported.

| SMILES | expression of the GST-c-Jun fusion construct [1] | binding to HSP90 protein by STD 1H NMR [2] | ability to block GST-jun phosphorylation ([1]; 40 μM, RNAi directed against HSP70) | AdNRG-induced phosphorylation of GST-c-Jun ([1]; 40 μM, control siRNA) |
| --- | --- | --- | --- | --- |
| NS(=O)(=O)c1nn2cc(-c3ccccc3)nc2s1 [Compound 1] | significantly increased | directly bind | – | – |
| NS(=O)(=O)c1nn2cc(-c3ccc(N4CCOCC4)cc3)nc2s1 [Compound 2] | without altering | directly bind | almost completely lost | strongly inhibited |
